Source: patent publication US20250382273A1 (INSTITUT NATIONAL DE LA SANTE ET DE LA RECHERCHE MEDICALE, priority 2022, published 2025)

system: M. tuberculosis H37Rv_gfp; type: cell-based, Mycobacterium tuberculosis; conditions: in combination with pretomanid 20 ng·mL−1; 5 days at 37° C.; […]; read-out: EC50 H37Rv_gfp

Structure (SMILES) | EC50 [µM]
O=C(Nc1nc2ccc(F)cc2s1)[C@@H]1C2C=CC(C2)[C@@H]1C(=O)O (stereo partly shown) [Example 42, 3-[(6-fluoro-1,3-benzothiazol-2-yl)carbamoyl]bicyclo[2.2.1]hept-5-ene-2-carboxylic acid] | 1 to 5
O=C(Nc1nc2ccc(C(F)(F)F)cc2s1)[C@@H]1C2C=CC(C2)[C@@H]1C(=O)O (stereo partly shown) [Example 43, 3-[[6-(trifluoromethyl)-1,3-benzothiazol-2-yl]carbamoyl]bicyclo[2.2.1]hept-5-ene-2-carboxylic acid] | < 1
O=C(Nc1nc2ccc(OC(F)(F)F)cc2s1)[C@@H]1C2C=CC(C2)[C@@H]1C(=O)O (stereo partly shown) [Example 44, 3-[[6-(trifluoromethoxy)-1,3-benzothiazol-2-yl]carbamoyl]bicyclo[2.2.1]hept-5-ene-2-carboxylic acid] | < 1
O=C1[C@@H]2[C@H](C(=O)N1c1nc3ccc(OC(F)(F)F)cc3s1)[C@@H]1C=C[C@H]2C1 [Example 45, (1R,2S,6R,7S)-4-[6-(trifluoromethoxy)-1,3-benzothiazol-2-yl]-4-azatricyclo[5.2.1.02,6]dec-8-ene-3,5-dione] | 1 to 5
O=C(Nc1nc2ccc(Cl)cc2s1)[C@@H]1C2C=CC(C2)[C@@H]1C(=O)O (stereo partly shown) [Example 46, 3-[(6-chloro-1,3-benzothiazol-2-yl)carbamoyl]bicyclo[2.2.1]hept-5-ene-2-carboxylic acid] | 1 to 5
O=C(Nc1nc2ccc(Br)cc2s1)[C@@H]1C2C=CC(C2)[C@@H]1C(=O)O (stereo partly shown) [Example 47, 3-[(6-bromo-1,3-benzothiazol-2-yl)carbamoyl]bicyclo[2.2.1]hept-5-ene-2-carboxylic acid] | < 1
O=C(Nc1nc2cc(Br)ccc2s1)[C@@H]1C2C=CC(C2)[C@@H]1C(=O)O (stereo partly shown) [Example 48, 3-[(5-bromo-1,3-benzothiazol-2-yl)carbamoyl]bicyclo[2.2.1]hept-5-ene-2-carboxylic acid] | 1 to 5
O=C(Nc1nc2ccc(I)cc2s1)[C@@H]1C2C=CC(C2)[C@@H]1C(=O)O (stereo partly shown) [Example 49, 3-[(6-iodo-1,3-benzothiazol-2-yl)carbamoyl]bicyclo[2.2.1]hept-5-ene-2-carboxylic acid] | 1 to 5
O=C(Nc1nc2ccc(-c3ccccc3)cc2s1)[C@@H]1C2C=CC(C2)[C@@H]1C(=O)O (stereo partly shown) [Example 51] | < 1
O=C(Nc1nc2ccc(C3CCCCC3)cc2s1)[C@@H]1C2C=CC(C2)[C@@H]1C(=O)O (stereo partly shown) [Example 52, 3-[(6-cyclohexyl-1,3-benzothiazol-2-yl)carbamoyl]bicyclo[2.2.1]hept-5-ene-2-carboxylic acid] | < 1
Cc1ccc(-c2ccc3nc(NC(=O)[C@@H]4C5C=CC(C5)[C@@H]4C(=O)O)sc3c2)cc1 (stereo partly shown) [Example 53, 3-[[6-(p-tolyl)-1,3-benzothiazol-2-yl]carbamoyl]bicyclo[2.2.1]hept-5-ene-2-carboxylic acid] | < 1
COc1ccc(-c2ccc3nc(NC(=O)[C@@H]4C5C=CC(C5)[C@@H]4C(=O)O)sc3c2)cc1 (stereo partly shown) [Example 54, 3-[[6-(4-methoxyphenyl)-1,3-benzothiazol-2-yl]carbamoyl]bicyclo[2.2.1]hept-5-ene-2-carboxylic acid] | < 1
O=C(Nc1nc2ccc(-c3ccc(Cl)cc3)cc2s1)[C@@H]1C2C=CC(C2)[C@@H]1C(=O)O (stereo partly shown) [Example 55, 3-[[6-(4-chlorophenyl)-1,3-benzothiazol-2-yl]carbamoyl]bicyclo[2.2.1]hept-5-ene-2-carboxylic acid] | < 1
O=C(Nc1nc2ccc(-c3ccc(Cl)c(Cl)c3)cc2s1)[C@@H]1C2C=CC(C2)[C@@H]1C(=O)O (stereo partly shown) [Example 56, 3-[[6-(3,4-dichlorophenyl)-1,3-benzothiazol-2-yl]carbamoyl]bicycle [2.2.1]hept-5-ene-2-carboxylic acid] | < 1
O=C(Nc1nc2ccc(-c3ccccc3C(F)(F)F)cc2s1)[C@@H]1C2C=CC(C2)[C@@H]1C(=O)O (stereo partly shown) [Example 57, 3-[6-[[2-(trifluoromethyl)phenyl]-1,3-benzothiazol-2-yl]carbamoyl]bicyclo[2.2.1]hept-5-ene-2-carboxylic acid] | 1 to 5
O=C1C2C3C=CC(C3)C2C(=O)N1c1nc2ccc(-c3ccccc3C(F)(F)F)cc2s1 [Example 58, (1R,2S,6R,7S)-4-[6-[[2-(trifluoromethyl)phenyl]-1,3-benzothiazol-2-yl]-4-azatricyclo [5.2.1.02,6]dec-8-ene-3,5-dione] | 5 to 10
O=C(Nc1nc2ccc(-c3cccc(C(F)(F)F)c3)cc2s1)[C@@H]1C2C=CC(C2)[C@@H]1C(=O)O (stereo partly shown) [Example 59, 3-[[6-[3-(trifluoromethyl)phenyl]-1,3-benzothiazol-2-yl]carbamoyl]bicyclo[2.2.1]hept-5-ene-2-carboxylic acid] | < 1

Structure (SMILES) | EC50 [µM]
O=C(Nc1nc2ccc(-c3ccc(C(F)(F)F)cc3)cc2s1)[C@@H]1C2C=CC(C2)[C@@H]1C(=O)O (stereo partly shown) [Example 60, 3-[[6-[4-(trifluoromethyl)phenyl]-1,3-benzothiazol-2-yl]carbamoyl]bicyclo[2.2.1]hept-5-ene-2-carboxylic acid] | < 1
O=C1[C@@H]2[C@H](C(=O)N1c1nc3ccc(-c4ccc(C(F)(F)F)cc4)cc3s1)[C@@H]1C=C[C@H]2C1 [Example 61, (1R,2S,6R,7S)-4-[6-[4-(trifluoromethyl)phenyl]-1,3-benzothiazol-2-yl]-4-azatricyclo[5.2.1.02,6]dec-8-ene-3,5-dione] | < 1
O=C(Nc1nc2ccc(-c3ccc(OC(F)(F)F)cc3)cc2s1)[C@@H]1C2C=CC(C2)[C@@H]1C(=O)O (stereo partly shown) [Example 62, 3-[[6-[4-(trifluoromethoxy)phenyl]-1,3-benzothiazol-2-yl]carbamoyl]bicyclo[2.2.1]hept-5-ene-2-carboxylic acid] | < 1
O=C(Nc1nc2ccc(-c3ccncc3)cc2s1)[C@@H]1C2C=CC(C2)[C@@H]1C(=O)O (stereo partly shown) [Example 64, 3-[[6-(4-pyridyl)-1,3-benzothiazol-2-yl]carbamoyl]bicyclo[2.2.1]hept-5-ene-2-carboxylic acid] | 1 to 5
O=C1[C@@H]2C3C=CC(C3)[C@@H]2C(=O)N1c1nc2ccc(-c3ccc(F)nc3)cc2s1 [Example 65, (1R,2S,6R,7S)-4-[6-(6-fluoro-3-pyridyl)-1,3-benzothiazol-2-yl]-4-azatricyclo[5.2.1.02.6]dec-8-ene-3,5-dione] | 1 to 5
O=C(O)C1C2C=CC(C2)[C@H]1C(=O)Nc1nc2ccc(-c3ccc(C(F)(F)F)nc3)cc2s1 (stereo partly shown) [Example 66, 3-[[6-[6-(trifluoromethyl)-3-pyridyl]-1,3-benzothiazol-2-yl]carbamoyl]bicyclo [2.2.1]hept-5-ene-2-carboxylic acid] | < 1
O=C1[C@@H]2[C@H](C(=O)N1c1nc3ccc(-c4ccc(C(F)(F)F)nc4)cc3s1)[C@@H]1C=C[C@H]2C1 [Example 67, (1R,2S,6R,7S)-4-[6-[6-(trifluoromethyl)-3-pyridyl]-1,3-benzothiazol-2-yl]-4-azatricyclo [5.2.1.02,6]dec-8-ene-3,5-dione] | 1 to 5
O=C1[C@@H]2[C@H](C(=O)N1c1nc3ccc(-c4ccsc4)cc3s1)[C@@H]1C=C[C@H]2C1 [Example 68, (1R,2S,6R,7S)-4-[6-(3-thienyl)-1,3-benzothiazol-2-yl]-4-azatricyclo[5.2.1.02,6]dec-8-ene-3,5-dione] | 1 to 5
O=C(Nc1nc2ccc(-c3ccoc3)cc2s1)[C@@H]1C2C=CC(C2)[C@@H]1C(=O)O (stereo partly shown) [Example 69, 3-[[6-(3-furyl)-1,3-benzothiazol-2-yl]carbamoyl]bicyclo[2.2.1]hept-5-ene-2-carboxylic acid] | < 1
O=C1[C@@H]2[C@H](C(=O)N1c1nc3ccc(-c4ccoc4)cc3s1)[C@@H]1C=C[C@H]2C1 [Example 70, (1R,2S,6R,7S)-4-[6-(3-furyl)-1,3-benzothiazol-2-yl]-4-azatricyclo[5.2.1.02,6]dec-8-ene-3,5-dione] | 1 to 5
C#CCOc1ccc(-c2ccc3nc(N4C(=O)[C@@H]5[C@H](C4=O)[C@@H]4C=C[C@H]5C4)sc3c2)cc1 [Example 71, (1R,2S,6R,7S)-4-[6-(4-prop-2-ynoxyphenyl)-1,3-benzothiazol-2-yl]-4-azatricyclo[5.2.1.02,6]dec-8-ene-3,5-dione] | < 1
C#Cc1ccc2nc(N3C(=O)[C@@H]4[C@H](C3=O)[C@@H]3C=C[C@H]4C3)sc2c1 [Example 72, (1R,2S,6R,7S)-4-(6-ethynyl-1,3-benzothiazol-2-yl)-4-azatricyclo[5.2.1.02,6]dec-8-ene-3,5-dione] | 1 to 5
C#CCOc1ccc2nc(N3C(=O)[C@@H]4[C@H](C3=O)[C@@H]3C=C[C@H]4C3)sc2c1 [Example 73, (1R,2S,6R,7S)-4-(6-prop-2-ynoxy-1,3-benzothiazol-2-yl)-4-azatricyclo[5.2.1.02,6]dec-8-ene-3,5-dione] | < 1
O=C1[C@@H]2C3C=CC(C3)[C@@H]2C(=O)N1c1nc2c(O)cccc2s1 [Example 74] | < 1
C#CCOc1cccc2sc(NC(=O)[C@@H]3C4C=CC(C4)[C@@H]3C(=O)O)nc12 (stereo partly shown) [Example 75, 3-[(4-prop-2-ynoxy-1,3-benzothiazol-2-yl)carbamoyl]bicyclo[2.2.1]hept-5-ene-2-carboxylic acid] | < 1
C#CCOc1cccc2sc(N3C(=O)[C@@H]4[C@H](C3=O)[C@@H]3C=C[C@H]4C3)nc12 [Example 76, (1R,2S,6R,7S)-4-(4-prop-2-ynoxy-1,3-benzothiazol-2-yl)-4-azatricyclo[5.2.1.02,6]dec-8-ene-3,5-dione] | 10 to 20

same assay, conditions: in combination with pretomanid, unit inferred; read-out: average EC50 H37Rv_gfp

Structure (SMILES) | EC50 [µM]
COc1ccc(-c2ccc3nc(NC(=O)[C@@H]4C5C=CC(C5)[C@@H]4C(=O)O)sc3c2)cc1 (stereo partly shown) [Example 54, 3-[[6-(4-methoxyphenyl)-1,3-benzothiazol-2-yl]carbamoyl]bicyclo[2.2.1]hept-5-ene-2-carboxylic acid] | 0.11
O=C(Nc1nc2ccc(-c3ccc(C(F)(F)F)cc3)cc2s1)[C@@H]1C2C=CC(C2)[C@@H]1C(=O)O (stereo partly shown) [Example 60, 3-[[6-[4-(trifluoromethyl)phenyl]-1,3-benzothiazol-2-yl]carbamoyl]bicyclo[2.2.1]hept-5-ene-2-carboxylic acid] | 0.05

same assay, conditions: read-out: EC50 H37Rv_gfp

Structure (SMILES) | EC50 [µM]
O=C(Nc1nc2ccc(O)cc2s1)[C@@H]1C2C=CC(C2)[C@@H]1C(=O)O (stereo partly shown) [Example 50, 3-[(6-hydroxy-1,3-benzothiazol-2-yl)carbamoyl]bicyclo[2.2.1]hept-5-ene-2-carboxylic acid] | 10 to 20
O=C1[C@@H]2[C@H](C(=O)N1c1nc3ccc(-c4ccc(O)cc4)cc3s1)[C@@H]1C=C[C@H]2C1 [Example 63, (1R,2S,6R,7S)-4-[6-(4-hydroxyphenyl)-1,3-benzothiazol-2-yl]-4-azatricyclo[5.2.1.02,6]dec-8-ene-3,5-dione] | 5 to 10
